Here are results for two compounds from paper PMC9146934 (Membranes, 2022).

What all share (format): cell-based
Experiment [1] has as its target T1, Vd-RDL1 GABAr (Varroa destructor, UniProt A0A343W7T5).
T1 sequence (A0A343W7T5 35-585): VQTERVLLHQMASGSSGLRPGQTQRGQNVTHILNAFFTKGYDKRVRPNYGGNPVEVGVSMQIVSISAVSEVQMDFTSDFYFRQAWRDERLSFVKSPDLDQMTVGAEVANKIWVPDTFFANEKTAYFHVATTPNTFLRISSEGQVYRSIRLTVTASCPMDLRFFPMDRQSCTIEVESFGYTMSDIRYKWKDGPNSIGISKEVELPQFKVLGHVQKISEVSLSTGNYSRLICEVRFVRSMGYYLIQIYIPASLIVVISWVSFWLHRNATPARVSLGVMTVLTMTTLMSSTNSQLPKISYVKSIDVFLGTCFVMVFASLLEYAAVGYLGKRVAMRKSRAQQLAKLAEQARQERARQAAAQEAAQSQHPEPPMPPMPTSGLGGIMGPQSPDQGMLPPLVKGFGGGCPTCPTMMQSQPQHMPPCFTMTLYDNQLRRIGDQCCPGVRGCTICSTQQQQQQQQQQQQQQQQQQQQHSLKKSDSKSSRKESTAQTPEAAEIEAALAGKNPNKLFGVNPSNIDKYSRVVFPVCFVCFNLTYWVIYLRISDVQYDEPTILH
Kind of experiment: Two-electrode voltage-clamp of GABA-induced currents, Vd-RDL1 expressed in Xenopus laevis oocytes. On the procedure:
(§1) cRNAs were in vitro synthesized from linearized plasmids using the M-message M-machine transcription kit (Thermo Fisher, Waltham, MA USA) following the manufacturer’s instructions. The cRNA concentration was adjusted to 1 µg/µL. Preparation and injection of X. laevis oocytes were completed as previously described. The oocytes were injected with 30 nL of a solution containing the cRNA of interest. Injected oocytes were maintained at 19 °C in a survival solution containing (in mM): NaCl, 96; KCl, 2; CaCl2, 1.8; MgCl2, 1; Hepes, 5; Na-pyruvate, 2.5; and gentamycin, 0.025, pH = 7.2 with NaOH, renewed daily.
(§2) Expressed currents were recorded at room temperature using the two-electrode voltage-clamp method 1–3 days after injection. Electrodes were pulled from borosilicate glass (Warner, ref GC150T10) and filled with 3 M KCl. […] Drugs were applied using a gravity-driven perfusion system at a speed of 2 mL/min.
(§3) Oocytes were perfused with the following ND solution (in mM): NaCl, 96; KCl, 3; CaCl2, 0.5; MgCl2, 1; HEPES, 5, with pH set at 7.4 with NaOH at ~1 mL/min. The reversal potential of the Ap-RDL receptor was measured in solutions containing (in mM): NaCl, Na-acetate or TEACl (tetraethylammonium chloride), 100; HEPES, 5 with pH set at 7.4, with NaOH or TEAOH. […] Fipronil or picrotoxin were dissolved at the final concentrations from stock solutions in DMSO (dimethylsulfoxide) at 200 and 10 mM, respectively. The final DMSO concentration was always less than 0.2%.
(§4) With Rel.Cur. the current amplitude at each concentration relative to the current recorded in the absence of antagonist; IC50, the concentration for half-maximum inhibition, log ([Inhib]) the logarithm of the inhibitor concentration, and p a slope factor.
(§5) With t, the time of the recording; Rel.Cur., the current amplitude at each concentration relative to the current recorded in the absence of antagonist; Amp, the amplitude of the exponential, Tau Block, the time constant of the exponential, and R the residual non-inhibited current at the steady-state of the effects. The relative block (Rel.B) is estimated as 1-R expressed in %.
(In general: Two-electrode voltage clamp holds a large cell at a set potential and records current.)

Experiment [2] addresses T2, Ap-RDL1 GABAr (Acyrthosiphon pisum, UniProt A0A385J708, C18R).
T2 sequence (A0A385J708 33-567 C18R): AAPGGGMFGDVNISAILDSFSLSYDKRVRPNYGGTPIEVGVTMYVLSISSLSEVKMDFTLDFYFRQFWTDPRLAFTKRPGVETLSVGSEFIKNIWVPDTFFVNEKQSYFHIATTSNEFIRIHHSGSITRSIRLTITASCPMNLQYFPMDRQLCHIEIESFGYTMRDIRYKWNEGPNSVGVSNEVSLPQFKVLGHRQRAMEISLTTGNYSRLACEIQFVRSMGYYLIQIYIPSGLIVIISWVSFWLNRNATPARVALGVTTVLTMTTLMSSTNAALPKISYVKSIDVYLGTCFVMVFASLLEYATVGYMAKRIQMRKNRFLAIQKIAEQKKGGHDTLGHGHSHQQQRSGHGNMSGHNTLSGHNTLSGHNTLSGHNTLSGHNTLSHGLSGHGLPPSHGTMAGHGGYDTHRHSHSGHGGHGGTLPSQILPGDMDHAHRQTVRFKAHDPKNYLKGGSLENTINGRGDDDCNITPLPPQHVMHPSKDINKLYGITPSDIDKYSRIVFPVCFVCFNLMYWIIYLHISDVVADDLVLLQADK
Kind of experiment: Two-electrode voltage-clamp of GABA-induced currents, Ap-RDL1 expressed in Xenopus laevis oocytes. The conditions noted are these: dieldrin 1 µM. As to the method: as §1, §2, §3, §4, §5

Experiment [3] addresses T3, Am-RDL GABAr (Apis mellifera, UniProt A0A8U0Y4W2).
T3 sequence (A0A8U0Y4W2 19-476): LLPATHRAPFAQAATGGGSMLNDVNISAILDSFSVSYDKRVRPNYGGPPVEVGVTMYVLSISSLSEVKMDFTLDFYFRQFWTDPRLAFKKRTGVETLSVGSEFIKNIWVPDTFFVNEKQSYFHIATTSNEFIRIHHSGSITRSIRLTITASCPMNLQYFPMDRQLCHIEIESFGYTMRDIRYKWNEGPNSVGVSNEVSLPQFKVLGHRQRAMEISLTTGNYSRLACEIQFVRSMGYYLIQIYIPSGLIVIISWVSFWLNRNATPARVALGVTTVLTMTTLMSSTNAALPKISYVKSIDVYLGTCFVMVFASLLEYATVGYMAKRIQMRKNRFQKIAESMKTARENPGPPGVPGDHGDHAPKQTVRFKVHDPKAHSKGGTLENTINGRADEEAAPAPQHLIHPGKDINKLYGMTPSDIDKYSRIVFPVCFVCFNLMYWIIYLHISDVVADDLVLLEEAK
The experiment in a line: Two-electrode voltage-clamp of GABA-induced currents, Am-RDL expressed in Xenopus laevis oocytes. To be noted: dieldrin 1 µM, GABA 100 µM. As to the method: as §1, §2, §3, §4, §5

The target in experiment [4] is T4, Vd-RDL2 GABAr (Varroa destructor, UniProt A0A3G3MDS2).
T4 sequence (A0A3G3MDS2 20-661): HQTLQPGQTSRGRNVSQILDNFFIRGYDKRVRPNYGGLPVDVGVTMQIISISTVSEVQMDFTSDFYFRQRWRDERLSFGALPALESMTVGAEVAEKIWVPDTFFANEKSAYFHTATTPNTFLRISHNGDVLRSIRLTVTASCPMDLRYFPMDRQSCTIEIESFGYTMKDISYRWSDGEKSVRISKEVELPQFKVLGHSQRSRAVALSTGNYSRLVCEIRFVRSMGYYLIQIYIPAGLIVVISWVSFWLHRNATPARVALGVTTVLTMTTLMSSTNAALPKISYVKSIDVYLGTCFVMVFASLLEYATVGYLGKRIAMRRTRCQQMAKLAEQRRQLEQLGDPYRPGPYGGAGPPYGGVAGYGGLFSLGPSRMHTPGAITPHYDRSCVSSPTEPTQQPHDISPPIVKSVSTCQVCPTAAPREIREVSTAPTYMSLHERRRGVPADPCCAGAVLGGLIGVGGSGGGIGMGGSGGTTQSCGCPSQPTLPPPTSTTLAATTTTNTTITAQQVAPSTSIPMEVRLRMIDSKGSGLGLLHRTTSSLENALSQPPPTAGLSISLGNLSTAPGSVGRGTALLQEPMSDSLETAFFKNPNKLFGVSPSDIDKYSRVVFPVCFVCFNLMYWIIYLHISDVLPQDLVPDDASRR
Kind of experiment: Two-electrode voltage-clamp of GABA-induced currents, Vd-RDL2 expressed in Xenopus laevis oocytes. To be noted: dieldrin 1 µM, GABA 100 µM. On the procedure: as §1, §2, §3, §4, §5

In experiment [5] the target is T5, Vd-RDL3 GABAr (Varroa destructor, UniProt A0A343W7T7).
T5 sequence (A0A343W7T7 31-591): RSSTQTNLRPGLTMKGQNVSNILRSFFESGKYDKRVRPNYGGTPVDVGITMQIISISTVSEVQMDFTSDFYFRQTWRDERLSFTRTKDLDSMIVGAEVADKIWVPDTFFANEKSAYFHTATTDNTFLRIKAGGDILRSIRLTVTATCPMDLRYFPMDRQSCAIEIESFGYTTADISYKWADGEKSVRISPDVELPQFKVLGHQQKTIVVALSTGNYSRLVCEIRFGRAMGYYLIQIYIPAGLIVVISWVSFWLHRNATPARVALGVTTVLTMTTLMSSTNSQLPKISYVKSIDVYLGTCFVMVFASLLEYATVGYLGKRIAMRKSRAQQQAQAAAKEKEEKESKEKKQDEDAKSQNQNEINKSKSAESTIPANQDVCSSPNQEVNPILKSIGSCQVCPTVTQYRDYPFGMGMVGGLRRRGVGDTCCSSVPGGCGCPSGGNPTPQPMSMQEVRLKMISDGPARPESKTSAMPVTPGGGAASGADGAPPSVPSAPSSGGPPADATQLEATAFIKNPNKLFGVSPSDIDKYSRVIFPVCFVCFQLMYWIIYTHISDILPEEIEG
Kind of experiment: Two-electrode voltage-clamp of GABA-induced currents, Vd-RDL3 expressed in Xenopus laevis oocytes. The conditions noted are these: dieldrin 1 µM, GABA 100 µM. On the procedure: as §1, §2, §3, §4, §5

For experiment [6], the target named is T6, Hs-α2β2γ2 GABA-A receptor (Homo sapiens, UniProt P18507+P47869+P47870).
T6 construct: expressed in transfected cells; host or cells: Xenopus laevis oocytes (cRNA injection)
Kind of experiment: cell-based. The conditions noted are these: dieldrin 1 µM, GABA 300 µM. On the procedure:
as §1, §2, §3, §4, §5

Experiment [7] addresses T7, Hs-α4β2γ2 GABA-A receptor (Homo sapiens, UniProt P18507+P47870+P48169).
T7 construct: expressed in transfected cells; host or cells: Xenopus laevis oocytes (cRNA injection; α4 in pcDNA3.1(+))
The experiment in a line: Two-electrode voltage-clamp of GABA-induced currents, Hs-α4β2γ2 expressed in Xenopus laevis oocytes. To be noted: dieldrin 1 µM, GABA 100 µM. As to the method:
as §1, §2, §3, §4
With t, the time of the recording; Rel.Cur., the current amplitude at each concentration relative to the current recorded in the absence of antagonist; Amp, the amplitude of the exponential, Tau Block, the time constant of the exponential, and R the residual non-inhibited current at the steady-state of the effects. […]

T6 sequence (P47869 29-451): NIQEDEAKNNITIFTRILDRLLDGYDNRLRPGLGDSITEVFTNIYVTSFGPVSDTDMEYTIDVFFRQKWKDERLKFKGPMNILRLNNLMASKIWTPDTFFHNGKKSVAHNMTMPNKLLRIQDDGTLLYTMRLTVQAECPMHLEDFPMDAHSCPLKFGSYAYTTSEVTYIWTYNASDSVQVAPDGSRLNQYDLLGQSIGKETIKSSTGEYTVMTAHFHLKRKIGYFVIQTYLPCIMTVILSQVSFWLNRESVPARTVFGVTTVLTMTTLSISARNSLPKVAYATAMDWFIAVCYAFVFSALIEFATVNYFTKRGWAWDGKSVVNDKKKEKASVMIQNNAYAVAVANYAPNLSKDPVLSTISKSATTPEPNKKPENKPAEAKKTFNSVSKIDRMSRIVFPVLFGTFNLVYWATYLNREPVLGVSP
T6 sequence (P47870 25-512 limits assumed): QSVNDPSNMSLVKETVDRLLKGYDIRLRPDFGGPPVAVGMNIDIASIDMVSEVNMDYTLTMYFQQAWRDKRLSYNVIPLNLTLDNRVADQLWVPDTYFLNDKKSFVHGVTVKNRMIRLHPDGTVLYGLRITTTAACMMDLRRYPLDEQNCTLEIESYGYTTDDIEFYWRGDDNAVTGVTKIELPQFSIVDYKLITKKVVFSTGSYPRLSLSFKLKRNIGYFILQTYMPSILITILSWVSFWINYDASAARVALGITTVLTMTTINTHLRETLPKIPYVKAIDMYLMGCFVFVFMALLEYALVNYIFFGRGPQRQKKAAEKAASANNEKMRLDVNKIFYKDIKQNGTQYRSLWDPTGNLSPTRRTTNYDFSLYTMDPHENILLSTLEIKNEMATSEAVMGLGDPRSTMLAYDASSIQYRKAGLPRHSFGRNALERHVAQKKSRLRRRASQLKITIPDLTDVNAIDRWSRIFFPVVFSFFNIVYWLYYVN
T6 sequence (P18507 40-475): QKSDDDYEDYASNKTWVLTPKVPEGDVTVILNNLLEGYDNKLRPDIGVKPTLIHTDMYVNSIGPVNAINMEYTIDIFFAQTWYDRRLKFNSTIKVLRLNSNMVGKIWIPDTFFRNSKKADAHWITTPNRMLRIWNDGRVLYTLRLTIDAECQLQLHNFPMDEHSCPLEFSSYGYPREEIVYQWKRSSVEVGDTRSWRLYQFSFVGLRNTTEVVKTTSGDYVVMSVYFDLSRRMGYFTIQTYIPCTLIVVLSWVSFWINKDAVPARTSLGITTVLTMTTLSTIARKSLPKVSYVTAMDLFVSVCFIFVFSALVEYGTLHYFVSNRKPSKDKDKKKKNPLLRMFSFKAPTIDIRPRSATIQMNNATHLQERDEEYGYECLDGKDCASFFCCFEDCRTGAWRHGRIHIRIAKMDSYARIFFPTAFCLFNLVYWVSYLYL
T7 sequence (P48169 36-554): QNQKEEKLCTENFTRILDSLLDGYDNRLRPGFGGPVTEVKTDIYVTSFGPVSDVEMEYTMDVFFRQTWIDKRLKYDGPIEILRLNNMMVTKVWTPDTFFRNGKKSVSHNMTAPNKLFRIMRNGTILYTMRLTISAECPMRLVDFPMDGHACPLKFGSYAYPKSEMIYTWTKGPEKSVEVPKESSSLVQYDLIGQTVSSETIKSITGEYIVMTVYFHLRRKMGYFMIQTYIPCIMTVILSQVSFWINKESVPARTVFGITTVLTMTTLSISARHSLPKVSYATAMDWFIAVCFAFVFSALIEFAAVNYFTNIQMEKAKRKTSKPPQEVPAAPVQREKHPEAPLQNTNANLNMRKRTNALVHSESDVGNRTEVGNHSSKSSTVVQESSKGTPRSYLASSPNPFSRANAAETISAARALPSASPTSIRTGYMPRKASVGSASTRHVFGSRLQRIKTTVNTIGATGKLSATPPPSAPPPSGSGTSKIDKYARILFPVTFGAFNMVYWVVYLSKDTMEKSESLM
T7 sequence (P47870 25-512 limits assumed): as the sequence (P47870 25-512 limits assumed) above
T7 sequence (P18507 40-475): as the sequence (P18507 40-475) above

In the case of picrotoxin, the sensitivity to picrotoxin result in experiment [1] (GABA 100 µM) is “insensitive”. For the same compound, the “block of GABA response by picrotoxin” value in experiment [1] (picrotoxin 100 µM, GABA 100 µM) came out at 20%. In experiment [1] (read-out: IC50 (inhibition of the GABA response), GABA 100 µM, inhibitor co-applied), the half-inhibitory concentration (IC50) was over 500 µM.
Regarding `ClC1=C(Cl)[C@]2(Cl)[C@@H]3[C@@H]4C[C@@H]([C@H]5O[C@@H]45)[C@@H]3[C@@]1(Cl)C2(Cl)Cl` [dieldrin], in experiment [2] (Figure 6B, GABA 50 µM), the “time to reach steady-state inhibition during successive pulses at the same dose” value was “more than 10 min”. The “Tau-Block (time constant of block)” value is 2 to 6 min in experiment [2] (repetitive GABA application, mono-exponential fit); 2 to 6 min in experiment [3] (mono-exponential fit); “around 55 min” in experiment [1] (dieldrin 1 µM, GABA 300 µM, hard to evaluate, fitted); 2 to 6 min in experiment [4] (mono-exponential fit); 2 to 6 min in experiment [5] (mono-exponential fit); 2 to 6 min in experiment [6] (mono-exponential fit). Further, the “Tau-Block (time constant of block)” value in experiment [7] (mono-exponential fit) fell in the range of 2 to 6 min. Further, the “Rel.B (steady-state relative block)” value is listed as 80–91% in experiment [3]; 51 ± 1% in experiment [4]; 80–91% in experiment [5]; 80–91% in experiment [6]; 80–91% in experiment [7]. In experiment [1] (dieldrin 1 µM, GABA 300 µM), the “Rel.B (steady-state block)” value is about 20%.

A word on the IC50: it is the point on the concentration scale where inhibition reaches its midpoint.
